# pIC50: −log10 of the molar value.
# Legend:
# PTGER4 (EP4) = PTGER4 (EP4) (Homo sapiens (Human), UniProt P35408); assay: cell-based
# PTGER2 (EP2) = PTGER2 (EP2) (Homo sapiens (Human), UniProt P43116); assay: hEP2 b-arrestin assay (PathHunter HEK 293 PTGER2 b-arrestin cells); type: cell-based; details: antagonistic activity, beta-arrestin assay; read-out: hEP2 b-arr IC50
# Description: Plate is pre-incubated 15 minutes at 37° C. Then five microliters of PGE2 (final conc. 5 μM) are transferred into the assay plate. Plate is incubated 120 minutes at 37° C.
# (each concentration is measured in duplicate)
# EP4 = EP4 (Homo sapiens (Human), UniProt P35408); assay: hEP4 cAMP assay (BT549 breast cancer cells, HTRF cAMP); type: cell-based; details: antagonistic activity, PGE2 6 nM
# Sequence of EP4 (P35408 whole entry): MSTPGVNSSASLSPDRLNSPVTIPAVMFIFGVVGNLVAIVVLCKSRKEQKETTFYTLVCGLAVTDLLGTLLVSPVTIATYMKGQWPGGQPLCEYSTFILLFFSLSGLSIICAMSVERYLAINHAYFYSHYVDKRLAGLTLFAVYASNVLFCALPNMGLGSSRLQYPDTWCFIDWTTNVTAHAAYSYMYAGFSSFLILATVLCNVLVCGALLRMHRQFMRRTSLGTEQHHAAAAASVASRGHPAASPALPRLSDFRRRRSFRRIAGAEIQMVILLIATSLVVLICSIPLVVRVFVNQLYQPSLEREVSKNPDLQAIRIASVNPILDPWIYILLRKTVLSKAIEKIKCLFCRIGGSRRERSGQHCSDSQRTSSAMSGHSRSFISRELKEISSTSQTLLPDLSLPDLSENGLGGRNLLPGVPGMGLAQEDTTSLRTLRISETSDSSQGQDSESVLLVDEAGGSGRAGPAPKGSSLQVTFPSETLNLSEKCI
# Method in brief: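 BT549 breast cancer cells (endogenous EP4) in HBSS/20 mM HEPES/0.2% BSA/2 mM IBMX preincubated 45 min at RT with compound, then stimulated 30 min at RT with 6 nM PGE2 (final). cAMP read by competitive HTRF immunoassay, signal inversely proportional to cAMP.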
# EP2 = EP2 (Homo sapiens (Human), UniProt P43116); assay: hEP2 cAMP assay (SF295 glioblastoma cells, HTRF cAMP); type: cell-based; details: antagonistic activity
# Sequence of EP2 (P43116 whole entry): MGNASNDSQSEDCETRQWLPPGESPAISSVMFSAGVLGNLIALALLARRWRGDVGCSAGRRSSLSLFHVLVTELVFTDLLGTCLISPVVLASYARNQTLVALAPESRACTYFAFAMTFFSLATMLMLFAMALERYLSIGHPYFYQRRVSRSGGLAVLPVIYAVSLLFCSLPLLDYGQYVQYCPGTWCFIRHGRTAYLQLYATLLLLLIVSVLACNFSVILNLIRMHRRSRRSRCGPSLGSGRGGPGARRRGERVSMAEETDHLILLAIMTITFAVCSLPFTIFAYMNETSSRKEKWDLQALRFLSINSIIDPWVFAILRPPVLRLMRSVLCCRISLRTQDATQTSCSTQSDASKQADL
# Method in brief: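 PGE2-driven cAMP accumulation was measured by HTRF in SF295 cells, which express endogenous EP2 only. Cells in assay buffer with 2 mM IBMX were pre-incubated 45 min at RT, then incubated 30 min at RT. Detection used competition between cellular cAMP and d2-cAMP for a cryptate anti-cAMP antibody.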
# Sequence of PTGER4 (EP4) (P35408 whole entry): as the sequence (P35408 whole entry) above
# Sequence of PTGER2 (EP2) (P43116 whole entry): as the sequence (P43116 whole entry) above
SMILES,pIC50 (PTGER4 (EP4)),pIC50 (PTGER2 (EP2)),pIC50 (EP4),pIC50 (EP2),pIC50 (EP4; BT549 cells)
"Cc1c(CCNc2cc(-c3ccc(C(=O)O)c(CC(C)C)c3)ncn2)ccc2ccccc12 [Ex 76, 2-Isobutyl-4-{6-[2-(1-methyl-naphthalen-2-yl)-ethylamino]-pyrimidin-4-yl}-benzoic acid]",6.92,6.44,7.38,6.66,
"COc1cc2ccoc2cc1CCNc1cc(-c2ccc(C(=O)O)c(OC3CCC3)c2)ncn1 [Ex 124, 2-Cyclobutoxy-4-{6-[2-(5-methoxy-benzofuran-6-yl)-ethylamino]-pyrimidin-4-yl}-benzoic acid]",6.67,6.95,7.00,7.02,
"CCOc1cc(-c2cc(NCCc3cc4ccccc4cc3C)ncn2)sc1C(=O)O [Ex 40, 3-Ethoxy-5-{6-[2-(3-methyl-naphthalen-2-yl)-ethylamino]-pyrimidin-4-yl}-thiophene-2-carboxylic acid]",7.60,6.90,7.70,6.64,
Cc1c(CCNc2cc(-c3ccc(C(=O)O)c(OC4CCC4)c3)ncn2)ccc2ccccc12 [Ex 168],6.89,6.82,6.77,6.67,
"CCOc1cc(-c2cc(NCCc3ccc4sccc4c3)ncn2)ccc1C(=O)O [Ex 155, 4-[6-(2-Benzo[b]thiophen-5-yl-ethylamino)-pyrimidin-4-yl]-2-ethoxy-benzoic acid]",6.52,6.63,6.82,6.79,
"COc1cc2occc2c(C)c1CCNc1cc(-c2ccc(C(=O)O)c(OC3CCC3)c2)ncn1 [Ex 208, 2-Cyclobutoxy-4-{6-[2-(6-methoxy-4-methyl-benzofuran-5-yl)-ethylamino]-pyrimidin-4-yl}-benzoic acid]",6.89,8.10,6.61,8.30,
"CCOc1cc(-c2cc(NCCc3ccc4scc(C)c4c3)ncn2)sc1C(=O)O [Ex 47, 3-Ethoxy-5-{6-[2-(3-methyl-benzo[b]thiophen-5-yl)-ethylamino]-pyrimidin-4-yl}-thiophene-2-carboxylic acid]",7.07,7.35,7.66,7.04,
"CCOc1cc(-c2cc(NCCc3cc4c(cc3C)OCCO4)ncn2)ccc1OCC(=O)O [Ex 184, (2-Ethoxy-4-{6-[2-(7-methyl-2,3-dihydro-benzo[1,4]dioxin-6-yl)-ethylamino]-pyrimidin-4-yl}-phenoxy)-acetic acid]",6.42,6.77,6.70,6.79,
"COc1cc2c(cc1CCNc1cc(-c3ccc4cc(C(=O)O)oc4c3)ncn1)OCCO2 [Ex 81, 6-{6-[2-(7-Methoxy-2,3-dihydro-benzo[1,4]dioxin-6-yl)-ethylamino]-pyrimidin-4-yl}-benzofuran-2-carboxylic acid]",5.74,6.91,6.79,6.91,
"CCOc1cc(-c2cc(NCCc3cc4ccoc4cc3OC)ncn2)ccc1OCC(=O)O [Ex 112, (2-Ethoxy-4-{6-[2-(6-methoxy-benzofuran-5-yl)-ethylamino]-pyrimidin-4-yl}-phenoxy)-acetic acid]",6.90,7.40,7.09,7.16,
"C#Cc1cc2ccccc2cc1CCNc1cc(-c2ccc(C(=O)O)c(OCC)c2)ncn1 [Ex 105, 2-Ethoxy-4-{6-[2-(3-ethynyl-naphthalen-2-yl)-ethylamino]-pyrimidin-4-yl}-benzoic acid]",7.28,7.40,7.14,7.12,
"CCCCOc1cc(-c2cc(NCCc3cc(F)c4sccc4c3)ncn2)ccc1C(=O)O [Example 454, 2-Butoxy-4-{6-[2-(7-fluoro-benzo[b]thiophen-5-yl)-ethylamino]-pyrimidin-4-yl}-benzoic acid]",6.67,7.06,,6.22,6.65
"COc1cc2c(cc1CCNc1cc(-c3ccc(C(=O)O)c(SC)c3)ncn1)OCCO2 [Ex 116, 4-{6-[2-(7-Methoxy-2,3-dihydro-benzo[1,4]dioxin-6-yl)-ethylamino]-pyrimidin-4-yl}-2-methylsulfanyl-benzoic acid]",6.87,7.12,7.07,7.64,
"CCOc1cc(-c2cc(NCCc3cc4ccoc4cc3OC)ncn2)ccc1C(=O)O [Ex 151, 2-Ethoxy-4-{6-[2-(6-methoxy-benzofuran-5-yl)-ethylamino]-pyrimidin-4-yl}-benzoic acid]",6.21,7.49,6.84,7.46,
"CCOc1cc(-c2cc(NCCc3ccc4sccc4c3)ncn2)sc1C(=O)O [Ex 5, 5-[6-(2-Benzo[b]thiophen-5-yl-ethylamino)-pyrimidin-4-yl]-3-ethoxy-thiophene-2-carboxylic acid]",8.30,7.41,8.52,7.55,
"CCOc1cc(-c2cc(NCCc3ccc4ccccc4c3C)ncn2)ccc1C(=O)O [Ex 172, 2-Ethoxy-4-{6-[2-(1-methyl-naphthalen-2-yl)-ethylamino]-pyrimidin-4-yl}-benzoic acid]",6.54,6.80,6.74,6.86,
"CCOc1cc(-c2cc(NCCc3ccc4ccccc4c3C)ncn2)sc1CCC(=O)O [Ex 57, 3-(3-Ethoxy-5-{6-[2-(1-methyl-naphthalen-2-yl)-ethylamino]-pyrimidin-4-yl}-thiophen-2-yl)-propionic acid]",7.47,6.71,7.55,6.72,
"CCOc1cc2c(cc1CCNc1cc(-c3ccc(C(=O)O)c(SC)c3)ncn1)OCCO2 [Ex 137, 4-{6-[2-(7-Ethoxy-2,3-dihydro-benzo[1,4]dioxin-6-yl)-ethylamino]-pyrimidin-4-yl}-2-methylsulfanyl-benzoic acid]",6.91,7.85,6.92,8.40,

# Second part, the molecule after the results:
pIC50 (PTGER4 (EP4)),pIC50 (PTGER2 (EP2)),pIC50 (EP4),pIC50 (EP2),pIC50 (EP4; BT549 cells),SMILES
6.40,7.28,6.39,7.70,,"CCOc1cc2c(cc1CCNc1cc(-c3ccc(C(=O)O)c(OCC)c3)ncn1)OCCO2 [Ex 261, 2-Ethoxy-4-{6-[2-(7-ethoxy-2,3-dihydro-benzo[1,4]dioxin-6-yl)-ethylamino]-pyrimidin-4-yl}-benzoic acid]"
6.86,6.27,7.05,6.66,,"CCOc1cc(-c2cc(NCCc3cc(Cl)c4sccc4c3)ncn2)ccc1C(=O)O [Example 358, 4-{6-[2-(7-Chloro-benzo[b]thiophen-5-yl)-ethylamino]-pyrimidin-4-yl}-2-ethoxy-benzoic acid]"
7.01,8.40,,8.30,6.89,"CCOc1cc(-c2cc(NCCc3c(OC)cc4c(c3C)OCCO4)ncn2)ccc1C(=O)O [Example 395, 2-Ethoxy-4-{6-[2-(7-methoxy-5-methyl-2,3-dihydro-benzo[1,4]dioxin-6-yl)-ethylamino]-pyrimidin-4-yl}-benzoic acid]"
7.41,7.48,7.85,7.48,,"CCOc1cc(-c2cc(NCCc3ccc4c(c3)OCO4)ncn2)sc1-c1noc(=O)[nH]1 [Example 344, 3-{5-[6-(2-Benzo[1,3]dioxol-5-yl-ethylamino)-pyrimidin-4-yl]-3-ethoxy-thiophen-2-yl}-[1,2,4]oxadiazol-5(4H)-one]"
6.04,6.54,6.03,6.97,,"CSc1cc(-c2cc(NCCc3ccc4cc[nH]c4c3)ncn2)ccc1C(=O)O [Ex 328, 4-{6-[2-(1H-Indol-6-yl)-ethylamino]-pyrimidin-4-yl}-2-methylsulfanyl-benzoic acid]"
5.74,7.10,6.32,7.33,,"COc1cc2sccc2cc1CCNc1cc(-c2ccc(C(=O)O)cc2)ncn1 [Ex 276, 4-{6-[2-(6-Methoxy-benzo[b]thiophen-5-yl)-ethylamino]-pyrimidin-4-yl}-benzoic acid]"
7.74,6.57,,6.60,7.42,"CCc1cc(-c2cc(NCCc3cc(F)c4sccc4c3)ncn2)sc1C(=O)O [Example 455, 3-Ethyl-5-{6-[2-(7-fluoro-benzo[b]thiophen-5-yl)-ethylamino]-pyrimidin-4-yl}-thiophene-2-carboxylic acid]"
8.52,8.15,7.72,7.70,,"CCOc1cc(-c2cc(NCCc3cc4ccsc4cc3OC)ncn2)sc1-c1noc(=O)[nH]1 [Example 342, 3-(3-Ethoxy-5-{6-[2-(6-methoxy-benzo[b]thiophen-5-yl)-ethylamino]-pyrimidin-4-yl}-thiophen-2-yl)-[1,2,4]oxadiazol-5(4H)-one]"
8.00,7.18,7.66,7.05,,"CCOc1cc(-c2cc(NCCc3ccc4[nH]ccc4c3)ncn2)sc1-c1noc(=O)[nH]1 [Example 339, 3-(3-Ethoxy-5-{6-[2-(1H-indol-5-yl)-ethylamino]-pyrimidin-4-yl}-thiophen-2-yl)-[1,2,4]oxadiazol-5(4H)-one]"
